What is called MBC is the lowest tested concentration that kills the bacteria rather than only halting them. In general, MIC refers to the lowest concentration found to suppress growth.

Consider two molecules from publication PMC7689250, “Synthetic Peptide Libraries Designed From a Minimal Alpha-Helical Domain of AS-48-Bacteriocin Homologs Exhibit Potent Antibacterial Activity” (Frontiers in Microbiology, 2020).

The subject of one experiment is E. coli (BL21). It counts as cell-based, Escherichia coli. The settings on record: for MBC: BL21; for MIC: BL21, 16 h. As to the method:
(§1) Peptides were screened against Escherichia coli (BL21), Streptococcus pyogenes (M1T1 5448, hereby referred to as M1), Pseudomonas aeruginosa (PAO1), and Staphylococcus aureus (USA300). Overnight bacterial cultures were grown in optimal media for each species: Luria-Bertani (LB) broth for E. coli, P. aeruginosa, and S. aureus, and Todd-Hewitt (TH) broth for S. pyogenes. Cultures were pelleted and re-suspended in Mueller-Hinton (MH) broth for peptide screens or minimal inhibitory concentration (MIC) assays, with 1 × 10^6 CFU/mL bacteria added per well ([Wiegand et al., 2008]). MICs for each parent peptide were identified against each bacterial strain as previously described ([Fields et al., 2018]). Members of each peptide library were screened against each bacterial strain at half of the MIC of the corresponding parent peptide to identify library members with increased antimicrobial activity relative to the parent peptide. […] Minimal bactericidal concentrations (MBCs) were determined following the respective MIC assays by plating aliquots from wells corresponding to each peptide concentration from the 96-well plate used for the MIC on species-appropriate agar. Plates were incubated at 37°C overnight, and MBCs were identified as the lowest concentrations of peptide at which no colonies were obtained. A Synergy H1 Microplate Reader (BioTek, Winooski, VT, United States) was used to determine the MICs and identify peptides with greater antimicrobial activity than the corresponding parent peptide by measuring OD 600 of the bacterial cultures in 96-well microtiter plates.

The subject of the next experiment is S. aureus (USA300). The experiment is classed as cell-based, Staphylococcus aureus. The settings on record: for MBC: USA300; for MIC: USA300, 16 h. As to the method: as §1
The test system of another experiment is S. pyogenes (M1). It counts as cell-based, Streptococcus pyogenes. The settings on record: for MBC: M1. As to the method: as §1
The next experiment concerns P. aeruginosa (PAO1). It counts as cell-based, Pseudomonas aeruginosa. The conditions noted are these: for MBC: PAO1; for MIC: PAO1, 16 h. As to the method: as §1

Like-named read-outs stand apart in the source and are kept apart here. Residues, ends and D or L forms follow the SMILES beside them.

`CC[C@H](C)[C@H](NC(=O)[C@H](CCCNC(=N)N)NC(=O)[C@H](C)NC(=O)[C@H](CCCCN)NC(=O)[C@H](CCCCN)NC(=O)CNC(=O)[C@H](Cc1ccccc1)NC(=O)[C@H](CCCCN)NC(=O)[C@H](CCCNC(=N)N)NC(=O)[C@H](CC(C)C)NC(=O)[C@H](CCC(=O)O)NC(=O)[C@H](CCC(=O)O)NC(=O)[C@H](CCCCN)NC(=O)[C@H](CC(C)C)NC(=O)[C@H](Cc1ccc(O)cc1)NC(=O)[C@H](CC(C)C)NC(=O)[C@@H](NC(=O)[C@H](CC(C)C)NC(=O)[C@H](C)NC(=O)[C@H](CCC(N)=O)NC(=O)[C@H](CCCNC(=N)N)NC(=O)CNC(=O)[C@@H](N)Cc1c[nH]c2ccccc12)[C@@H](C)O)C(=O)N[C@@H](C)C(=O)N[C@@H](Cc1c[nH]c2ccccc12)C(=O)O` [Syn-xiamencin-13] (H-WGRQALTLYLKEELRKFGKKARIAW-OH; N-terminus and C-terminus assumed): the minimal bactericidal concentration (MBC) in the experiment on E. coli (BL21) is 32 µM; in the experiment with S. aureus (USA300), above 128 µM; in the experiment with S. pyogenes (M1), 0.25 µM; in the experiment with P. aeruginosa (PAO1), above 128 µM. For the same molecule, the minimal inhibitory concentration (MIC) is 16 µM in the experiment with E. coli (BL21), above 128 µM in the experiment with S. aureus (USA300), 0.25 µM in the experiment with S. pyogenes (M1) (S. pyogenes M1) and above 128 µM with P. aeruginosa (PAO1).

For the molecule `CC[C@H](C)[C@H](NC(=O)[C@H](Cc1ccccc1)NC(=O)[C@H](C)NC(=O)[C@H](CCCCN)NC(=O)[C@H](CCCCN)NC(=O)CNC(=O)[C@H](CCCNC(=N)N)NC(=O)[C@H](CCCCN)NC(=O)[C@H](CCCNC(=N)N)NC(=O)[C@H](CC(C)C)NC(=O)[C@H](CCC(=O)O)NC(=O)[C@H](CCC(=O)O)NC(=O)[C@H](CCCCN)NC(=O)[C@H](CC(C)C)NC(=O)[C@H](Cc1ccc(O)cc1)NC(=O)[C@H](CC(C)C)NC(=O)[C@@H](NC(=O)[C@H](CC(C)C)NC(=O)[C@H](C)NC(=O)[C@H](CCC(N)=O)NC(=O)[C@H](CCCNC(=N)N)NC(=O)CNC(=O)[C@H](C)N)[C@@H](C)O)C(=O)N[C@@H](C)C(=O)N[C@@H](Cc1c[nH]c2ccccc12)C(=O)O` [Syn-xiamencin-1] (H-AGRQALTLYLKEELRKRGKKAFIAW-OH; N-terminus and C-terminus assumed), the MBC in the experiment on E. coli (BL21) is 32 µM; in the experiment on S. aureus (USA300), above 128 µM; with S. pyogenes (M1), 16 µM; in the experiment on P. aeruginosa (PAO1), above 128 µM. The MIC in the experiment on E. coli (BL21) was 32 µM; in the experiment with S. aureus (USA300), above 128 µM; with S. pyogenes (M1) (M1, 16 h), 16 µM; in the experiment with P. aeruginosa (PAO1), above 128 µM.
